From PMC11413854, “Reversible Control of Native GluN2B-Containing NMDA Receptors with Visible Light” (ACS Chemical Neuroscience, 2024)

Experiments:
[1] = target: T1, GluN1-L135H/GluN2B (UniProt P35439+Q01097, L135H); assay: TEVC on Xenopus oocytes, ifenprodil site mutant; assay type: cell-based, rat GluN1, mouse GluN2B; conditions: 1 µM trans-OptoNAM-3 (dark)
T1 construct: expressed in transfected cells; host or cells: Xenopus laevis oocytes (nuclear cDNA injection)
From the text: We finally investigated the location of the OptoNAM-3 binding-site on the receptor. […] The binding site for GluN2B-selective antagonists at the GluN1/GluN2B NTD dimer interface contains two partially overlapping pockets that accommodate GluN2B-selective NAMs of distinct chemical scaffolds:[19] either scaffolds related to ifenprodil or scaffolds related to another GluN2B-selective NAM called EVT-101.[47]
We used cDNA coding for rat GluN1–1a (named GluN1 herein) (GenBank: U08261.1), rat GluN2A (GenBank: D13211.1), mouse GluN2B (GenBank: D10651.2), rat GluA1 flop (GenBank: M36418.2), and rat Myc-GluA2(Q)-flip (GenBank: AF164344.1) cloned into pcDNA3-based expression plasmids. GluK2 (GenBank: Z11548.1) corresponds to the fully RNA-edited version.[80] The GluN2B-ΔNTD construct is from ref[45] and GluN2B–N615K is from ref[81]. Single mutants GluN2B-Q110G and GluN1-L135H were from ref[19]. The GluA2 cDNA contains a Myc tag ([…]) fused between the signal peptide and the N-terminus sequences, and the GluA2 subunit is […] for its Q/R/N site (GluA2(Q)) to allow permeation of homomeric GluA2 receptors.[2] cDNAs coding for rat GluN2C (GenBank: M91563.1) and GluN2D subunits (GenBank: L31611.1) were in prK5 plasmids. […]

[2] = test system: GluN1/GluN2A/GluN2B triheteromers; assay: TEVC on Xenopus oocytes, GluN1/GluN2A/GluN2B triheteromers; assay type: cell-based, rat GluN1, rat GluN2A, mouse GluN2B; conditions: 1 µM trans-OptoNAM-3 (dark)
From the text: NMDARs exist as multiple subtypes in the brain that are formed by the combination of two GluN1 and either two identical (diheteromers) or different (triheteromers) GluN2 (GluN2A-D) subunits.[1] We assessed the selectivity of trans-OptoNAM-3 (dark PSS) for the other NMDAR subtypes.
We used cDNA coding for rat GluN1–1a (named GluN1 herein) (GenBank: U08261.1), rat GluN2A (GenBank: D13211.1), mouse GluN2B (GenBank: D10651.2), rat GluA1 flop (GenBank: M36418.2), and rat Myc-GluA2(Q)-flip (GenBank: AF164344.1) cloned into pcDNA3-based expression plasmids. GluK2 (GenBank: Z11548.1) corresponds to the fully RNA-edited version.[80] The GluN2B-ΔNTD construct is from ref[45] and GluN2B–N615K is from ref[81]. Single mutants GluN2B-Q110G and GluN1-L135H were from ref[19]. The GluA2 cDNA contains a Myc tag ([…]) fused between the signal peptide and the N-terminus sequences, and the GluA2 subunit is […] for its Q/R/N site (GluA2(Q)) to allow permeation of homomeric GluA2 receptors.[2] cDNAs coding for rat GluN2C (GenBank: M91563.1) and GluN2D subunits (GenBank: L31611.1) were in prK5 plasmids.
Expression of recombinant NMDA receptors was obtained by oocyte nuclear coinjection of 37 nL of a mixture of cDNAs (at 30 ng/μL) coding for GluN1–1a and various GluN2 subunits (ratio 1:1). The protocol in ref[43] was followed for the expression of GluN1/GluN2A/GluN2B triheteromers. […]

T1 sequence (Q01097 27-1482, other chains not shown): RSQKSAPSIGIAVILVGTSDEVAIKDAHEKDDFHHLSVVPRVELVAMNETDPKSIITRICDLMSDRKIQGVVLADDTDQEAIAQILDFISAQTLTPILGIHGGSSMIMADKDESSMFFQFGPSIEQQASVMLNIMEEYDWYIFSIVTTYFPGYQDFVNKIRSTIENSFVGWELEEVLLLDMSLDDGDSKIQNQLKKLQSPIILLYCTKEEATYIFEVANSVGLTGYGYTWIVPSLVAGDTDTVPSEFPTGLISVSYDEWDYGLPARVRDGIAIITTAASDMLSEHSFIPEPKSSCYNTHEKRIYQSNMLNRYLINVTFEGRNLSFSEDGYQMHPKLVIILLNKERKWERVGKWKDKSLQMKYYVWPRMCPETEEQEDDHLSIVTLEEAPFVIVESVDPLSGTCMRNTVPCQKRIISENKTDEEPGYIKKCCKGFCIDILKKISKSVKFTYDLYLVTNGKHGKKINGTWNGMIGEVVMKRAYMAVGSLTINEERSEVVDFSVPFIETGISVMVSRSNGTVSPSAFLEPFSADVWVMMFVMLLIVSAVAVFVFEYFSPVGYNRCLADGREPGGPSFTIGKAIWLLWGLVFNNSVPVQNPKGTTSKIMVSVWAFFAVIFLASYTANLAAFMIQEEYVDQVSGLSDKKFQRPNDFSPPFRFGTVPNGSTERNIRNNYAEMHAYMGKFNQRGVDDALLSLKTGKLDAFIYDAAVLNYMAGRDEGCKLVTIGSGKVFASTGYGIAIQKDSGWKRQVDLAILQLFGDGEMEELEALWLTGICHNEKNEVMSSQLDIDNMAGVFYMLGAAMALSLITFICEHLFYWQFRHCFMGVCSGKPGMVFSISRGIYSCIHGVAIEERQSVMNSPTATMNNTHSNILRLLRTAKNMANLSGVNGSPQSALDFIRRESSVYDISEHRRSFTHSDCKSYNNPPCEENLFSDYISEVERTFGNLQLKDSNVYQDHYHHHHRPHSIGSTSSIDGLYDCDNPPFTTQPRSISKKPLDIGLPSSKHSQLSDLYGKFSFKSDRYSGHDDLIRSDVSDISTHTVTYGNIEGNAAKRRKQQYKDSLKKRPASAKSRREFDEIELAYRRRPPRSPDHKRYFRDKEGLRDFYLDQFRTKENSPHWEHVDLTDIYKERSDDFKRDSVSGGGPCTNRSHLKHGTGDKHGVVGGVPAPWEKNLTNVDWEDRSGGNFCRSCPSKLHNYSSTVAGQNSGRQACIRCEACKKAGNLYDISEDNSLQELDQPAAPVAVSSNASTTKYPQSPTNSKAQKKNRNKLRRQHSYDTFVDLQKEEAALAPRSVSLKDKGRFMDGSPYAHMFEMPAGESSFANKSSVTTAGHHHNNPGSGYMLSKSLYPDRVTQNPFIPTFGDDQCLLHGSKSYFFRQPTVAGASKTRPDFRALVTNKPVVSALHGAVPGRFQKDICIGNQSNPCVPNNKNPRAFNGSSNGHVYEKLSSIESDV

Q: c1ccc(/N=N/c2ccc(CCNc3ccncc3)cc2)cc1 [OptoNAM-3, (E)-N-(4-(Phenyldiazenyl)phenethyl)pyridin-4-amine] was tested. Which “inhibition of GluN1-L135H/GluN2B” value [1] did it give?
A: The value was 13.546%.

Q: What about the “inhibition of GluN1/GluN2A/GluN2B triheteromers” value [2] of the same molecule?
A: Its value is 11.404%.

Q: What about the “inhibition of GluN1/GluN2A/GluN2B triheteromers” value ([2]; listed as trans-OptoNAM-3) of the same molecule?
A: The value was 11.4% ± 0.9%.
